From patent US20190064177A1, “INCORPORATING COMPETITIVE BINDING INFORMATION INTO MOLECULAR ARRAY ANALYSIS TO GENERATE FUNCTION NETWORKS OF INTERACTIONS” (ARIZONA BOARD OF REGENTS ON BEHALF OF ARIZONA STATE …, priority 2017, published 2019)

Tested on: diaphorase
Assay: fluorescently labeled diaphorase binding to peptide array with or without excess FAD
Settings: for 1 microM FAD (array fluorescence of bound diaphorase) / 1 micro no FAD (array fluorescence of bound diaphorase): 1 micromolar labeled diaphorase; for 1 microM FAD (array fluorescence of bound diaphorase) / 10 microM FAD (array fluorescence of bound diaphorase): excess FAD present; for 1 microM FAD (array fluorescence of bound diaphorase) / 1 micro no FAD (array fluorescence of bound diaphorase) / 10 microM FAD (array fluorescence of bound diaphorase) / 10 microM no FAD (array fluorescence of bound diaphorase): 65535 is detector saturation; for 10 microM FAD (array fluorescence of bound diaphorase) / 10 microM no FAD (array fluorescence of bound diaphorase): 10 micromolar labeled diaphorase; for 1 microM noFAD/FAD / 10 microM noFAD/FAD: ratio of binding without FAD to binding with FAD; for 1 microM noFAD/FAD / Meas. ratio: 1 micromolar diaphorase; for 10 microM noFAD/FAD: 10 micromolar diaphorase; for Meas. ratio: ratio without/with FAD calculated from measured binding values
Procedure: Measurements were performed in which diaphorase was bound to an array of about 126,000 unique sequences. The sequences were chosen simply to cover sequence space. 16 of the natural 20 amino acids were used to make up these sequences with C, I, M and T omitted. The diaphorase was fluorescently labeled and each peptide sequence feature was scanned and fluorescence recorded on the array. Diaphorase bound tightly to some peptides and not at all to others. Two different concentrations of diaphorase were used, 1 and 10 micromolar, and the diaphorase was either bound in the presence of excess FAD or not. […] Indeed the Pearson correlation coefficient between w/ and w/o FAD was >0.97, which actually speaks to the reproducibility of this dataset. However, there are some differences as shown on the scatter plot of FIG. 1. When one takes a ratio of the binding without FAD and the binding with FAD, one finds the following top 30 ratios (Table 1): Note that all these sequences end with a GSG linker sequence. Because there are two concentrations, one can easily check for consistency. Note that 65535 is detector saturation, so one has to ignore those values. For this reason, the lower concentration is used most of the time. […] It appears that this was some kind of error and was ignored in subsequent analysis. A similar conclusion can be made with the 7th highest value. Looking at the sequences, RW or at least R or K followed by a nonpolar or aromatic amino acid at the N-terminus. This is interesting as FAD is negatively charged, though the adenine in FAD looks a bit like tryptophan (see FIG. 2).

| Sequence | 1 microM FAD (array fluorescence of bound diaphorase) | 1 micro no FAD (array fluorescence of bound diaphorase) | 10 microM FAD (array fluorescence of bound diaphorase) | 10 microM no FAD (array fluorescence of bound diaphorase) | 1 microM noFAD/FAD | 10 microM noFAD/FAD | Meas. ratio |
| --- | --- | --- | --- | --- | --- | --- | --- |
| PRSFGYNNVGGSG [array peptide with C-terminal GSG linker] | 2525.5 | 6842.5 | 40495.5 | 65535 | 2.709 | 1.618 | 2.71 |
| PRYQNFGGGSG [array peptide with C-terminal GSG linker] | 2458 | 6907 | 36662 | 65535 | 2.81 | 1.788 | 2.81 |
| PRYSGQYGGSG [array peptide with C-terminal GSG linker] | 3234.25 | 8432.75 | 45157.75 | 65535 | 2.607 | 1.451 | 2.61 |
| PVDFGYQLKVSGS |  |  |  |  |  |  | 0.66 |
| PVPWRHVNYAHSG |  |  |  |  |  |  | 0.69 |
| QLLQLLFGGSG [array peptide with C-terminal GSG linker] | 6311.5 | 3228.25 | 53382.25 | 19529.5 | 0.5115 | 0.3658 | 0.51 |
| RAQYAQYLFGGSG [array peptide with C-terminal GSG linker] | 3162 | 8721.5 | 55433.5 | 65535 | 2.758 | 1.182 | 2.76 |
| RFGQNLPLGGSG [array peptide with C-terminal GSG linker] | 2103.25 | 5802.25 | 34712 | 63502.5 | 2.759 | 1.829 | 2.76 |
| RFKYPLDGGSG [array peptide with C-terminal GSG linker] | 2199.25 | 5764.75 | 30389 | 55899.25 | 2.621 | 1.839 | 2.62 |
| RLQYLFKSDGSG [array peptide with C-terminal GSG linker] | 1964.75 | 5778.25 | 30591 | 64328.25 | 2.941 | 2.103 | 2.94 |
| RLYPQGYGGSG [array peptide with C-terminal GSG linker] | 4541.5 | 11912 | 61747 | 65535 | 2.623 | 1.061 | 2.62 |
| RNWYGGSG [array peptide with C-terminal GSG linker] | 2940.75 | 7830.5 | 48587 | 65535 | 2.663 | 1.349 | 2.66 |
| RPLQVQRGGSG [array peptide with C-terminal GSG linker] | 14421.5 | 5406 | 41059.5 | 53243 | 0.3749 | 1.297 | 0.37 |
| RQAYLFGGSG [array peptide with C-terminal GSG linker] | 4477 | 14479.75 | 64033.5 | 65535 | 3.234 | 1.023 | 3.23 |
| RQRYPKVSGGSG [array peptide with C-terminal GSG linker] |  |  |  |  |  |  | 1.71 |
| RVLPYHGWKWFSG |  |  |  |  |  |  | 2.45 |

Continued, values first:

| 1 microM FAD (array fluorescence of bound diaphorase) | 1 micro no FAD (array fluorescence of bound diaphorase) | 10 microM FAD (array fluorescence of bound diaphorase) | 10 microM no FAD (array fluorescence of bound diaphorase) | 1 microM noFAD/FAD | 10 microM noFAD/FAD | Meas. ratio | Sequence |
| --- | --- | --- | --- | --- | --- | --- | --- |
| 2460 | 6757 | 27275.5 | 57203.5 | 2.747 | 2.097 | 2.75 | RQYQKHSYAKFSGSG [array peptide with C-terminal GSG linker] |
| 3876 | 1953.667 | 12238.917 | 17018.417 | 0.504 | 1.391 | 0.50 | RSHPKHNVGSG [array peptide with C-terminal GSG linker] |
| 3860.75 | 10165 | 46173.5 | 61301.5 | 2.633 | 1.328 | 2.63 | RWKYQKFNGGSG [array peptide with C-terminal GSG linker] |
| 5458 | 15697.5 | 65535 | 65535 | 2.876 | 1 | 2.88 | RWQYYNQKFGSG [array peptide with C-terminal GSG linker] |
| 4093.5 | 11043 | 51412.25 | 65535 | 2.698 | 1.275 | 2.70 | RWRYYWKSEGSG [array peptide with C-terminal GSG linker] |
| 3614 | 10002.75 | 51221.25 | 65535 | 2.768 | 1.279 | 2.77 | RWSFPAKGGSG [array peptide with C-terminal GSG linker] |
| 3658 | 10176.5 | 46265.5 | 64775 | 2.782 | 1.4 | 2.78 | RWYKNGGSG [array peptide with C-terminal GSG linker] |
| 4971.5 | 13584.75 | 64053.5 | 65535 | 2.733 | 1.023 | 2.73 | RYAYFQHLGGSG [array peptide with C-terminal GSG linker] |
| 1245.75 | 3569.5 | 18165 | 50327.75 | 2.865 | 2.771 | 2.87 | RYNLYKPSDGSG [array peptide with C-terminal GSG linker] |
| 3483.25 | 9735.75 | 53014.5 | 65535 | 2.795 | 1.236 | 2.80 | RYPWNKLYKFDGSG [array peptide with C-terminal GSG linker] |
